This assay addresses T1, Human VPS34 (Homo sapiens, UniProt Q8NEB9).
T1 construct: GST (N); host or cells: SF9 insect cells (baculovirus)
Kind of assay: Human VPS34 Enzyme Assay (Adapta TR-FRET). The format is biochemical. To be noted: compound at 1.111 μM; read-out: Average VPS34 % INH @ 1.111 μM. A general note: Time-resolved FRET reads energy transfer from a long-lived donor to a nearby acceptor.

T1 sequence (Q8NEB9 whole entry): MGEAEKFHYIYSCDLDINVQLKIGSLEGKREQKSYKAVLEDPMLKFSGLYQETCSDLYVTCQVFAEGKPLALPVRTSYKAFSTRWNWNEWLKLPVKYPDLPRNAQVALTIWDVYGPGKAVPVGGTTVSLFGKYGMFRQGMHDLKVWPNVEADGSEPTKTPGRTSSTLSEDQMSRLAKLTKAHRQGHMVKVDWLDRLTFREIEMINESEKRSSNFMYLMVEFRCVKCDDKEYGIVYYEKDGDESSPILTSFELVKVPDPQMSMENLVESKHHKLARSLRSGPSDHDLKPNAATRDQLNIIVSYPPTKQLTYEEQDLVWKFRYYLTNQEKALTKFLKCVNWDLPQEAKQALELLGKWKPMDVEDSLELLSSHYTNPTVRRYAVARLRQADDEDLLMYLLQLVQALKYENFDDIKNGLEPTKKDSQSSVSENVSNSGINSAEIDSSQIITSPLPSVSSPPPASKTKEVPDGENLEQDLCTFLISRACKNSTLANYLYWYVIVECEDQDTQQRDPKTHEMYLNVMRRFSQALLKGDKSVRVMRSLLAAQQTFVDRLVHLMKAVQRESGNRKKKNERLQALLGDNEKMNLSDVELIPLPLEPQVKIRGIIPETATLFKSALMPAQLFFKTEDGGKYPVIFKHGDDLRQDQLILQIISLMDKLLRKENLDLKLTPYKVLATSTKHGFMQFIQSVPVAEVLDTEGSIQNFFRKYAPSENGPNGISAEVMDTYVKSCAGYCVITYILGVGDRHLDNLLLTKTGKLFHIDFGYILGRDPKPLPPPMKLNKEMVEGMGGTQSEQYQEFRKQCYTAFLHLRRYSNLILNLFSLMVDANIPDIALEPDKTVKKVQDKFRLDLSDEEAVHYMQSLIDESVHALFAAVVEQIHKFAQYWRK

For the molecule `CC(=O)Nc1cc(-c2cc(-c3nnc[nH]3)c(-c3cc(CN4CCCC4)ccc3Cl)o2)c(C)cn1` [Compound I-36, N-(4-{5-[2-chloro-5-(pyrrolidin-1-ylmethyl)phenyl]-4-(4H-1,2,4-triazol-3-yl)-2-furyl}-5-methylpyridin-2-yl)acetamide], the inhibition at 1.111 µM was 129%. For `CCCC(=O)Nc1cc(-c2nc(-c3nnc[nH]3)c(-c3ccccc3Cl)o2)ccn1` [Compound I-76, N-{4-[5-(2-chlorophenyl)-4-(4H-1,2,4-triazol-3-yl)-1,3-oxazol-2-yl]pyridin-2-yl}butanamide], the inhibition at 1.111 µM was determined as 79%.

On to `CC(=O)Nc1cc(-c2nc(N3CCCC(N(C)C)C3)c(-c3nnc[nH]3)o2)c(C)cn1` (centres unmarked) [Compound I-79, N-(4-{4-[3-(dimethylamino)piperidin-1-yl]-5-(4H-1,2,4-triazol-3-yl)-1,3-oxazol-2-yl}-5-methylpyridin-2-yl)acetamide], for which the inhibition at 1.111 µM came out at 82%. With `CC(=O)Nc1ccc(-c2nc(-c3nnc[nH]3)c(-c3ccccc3Cl)o2)cc1` [Compound I-8, N-{4-[5-(2-chlorophenyl)-4-(4H-1,2,4-triazol-3-yl)-1,3-oxazol-2-yl]phenyl}acetamide], the inhibition at 1.111 µM was found to be 7%. `CNC(=O)c1cc(-c2cc(NC(C)=O)ncc2C)oc1-c1ccccc1Cl` [Compound I-54, 5-(2-acetamido-5-methylpyridin-4-yl)-2-(2-chlorophenyl)-N-methyl-3-furamide]: the inhibition at 1.111 µM is 152%. Next, `O=C(Nc1cc(-c2nc(-c3nnc[nH]3)c(-c3ccccc3Cl)o2)ccn1)C1CC1` [Compound I-18, N-{4-[5-(2-chlorophenyl)-4-(4H-1,2,4-triazol-3-yl)-1,3-oxazol-2-yl]pyridin-2-yl}cyclopropanecarboxamide]: 120%; `CCNC(=O)c1nc(-c2cc(NC(C)=O)ncc2C)oc1-c1ccccc1Cl` [Compound I-59, 2-(2-acetamido-5-methylpyridin-4-yl)-5-(2-chlorophenyl)-N-ethyl-1,3-oxazole-4-carboxamide]: 101%. Next, `CC(=O)Nc1cc(-c2cc(C(=O)NCCCN3CCCC3)c(-c3ccccc3Cl)o2)c(C)cn1` [Compound I-84, 5-(2-acetamido-5-methylpyridin-4-yl)-2-(2-chlorophenyl)-N-[3-(pyrrolidin-1-yl)propyl]-3-furamide]: 54%. To `CC(=O)Nc1cc(-c2nc(C(=O)Nc3cnccn3)c(-c3ccccc3Cl)o2)c(C)cn1` [Compound I-31, 2-(2-acetamido-5-methylpyridin-4-yl)-5-(2-chlorophenyl)-N-(pyrazin-2-yl)-1,3-oxazole-4-carboxamide] belongs 56%; to `CNC(=O)c1nc(-c2cc(NC(C)=O)ncc2C)oc1-c1ccccc1Cl` [Compound I-52, 2-(2-acetamido-5-methylpyridin-4-yl)-5-(2-chlorophenyl)-N-methyl-1,3-oxazole-4-carboxamide], 117%. Turning to `CC(=O)Nc1cc(-c2cc(C(=O)NC(C)C)c(-c3ccccc3Cl)o2)c(C)cn1` [Compound I-72, 5-(2-acetamido-5-methylpyridin-4-yl)-2-(2-chlorophenyl)-N-isopropyl-3-furamide], the inhibition at 1.111 µM is 78%. For `O=C(Cc1ccccc1)Nc1cc(-c2nc(-c3nnc[nH]3)c(-c3ccccc3Cl)o2)ccn1` [Compound I-67, N-{4-[5-(2-chlorophenyl)-4-(4H-1,2,4-triazol-3-yl)-1,3-oxazol-2-yl]pyridin-2-yl}-2-phenylacetamide], the inhibition at 1.111 µM was 39%. To `CC(=O)Nc1cc(-c2nc(-c3nccs3)c(-c3ccccc3Cl)o2)c(C)cn1` [Compound I-60, N-{4-[5-(2-chlorophenyl)-4-(1,3-thiazol-2-yl)-1,3-oxazol-2-yl]-5-methylpyridin-2-yl}acetamide] belongs 122%; to `CC(=O)Nc1cc(-c2nc(C(=O)N(C)C)c(-c3ccccc3Cl)o2)c(C)cn1` [Compound I-73, 2-(2-acetamido-5-methylpyridin-4-yl)-5-(2-chlorophenyl)-N,N-dimethyl-1,3-oxazole-4-carboxamide], 115%.

The values above are taken from US8859768B2, “Heteroaryls and uses thereof” (Millennium Pharmaceuticals, Inc., priority 2010, dated 2014).
